Drawing on the RepoRT retention time repository (doi:10.1016/j.chroma.2019.01.023), this text covers LC retention time for 54 compounds.

Common to all, as to settings: stereoisomer not certain
Data set [1] is described as follows: RP, Phenomenex Kinetex C18, 150 × 2.1 mm, 1.7 µm, 30 °C, 0.3 mL/min, estimated dead time 1.1 min; A: water + 0.1% formic acid, pH 3; B: acetonitrile + 0.1% formic acid, pH 3; gradient (min/%B) 0/2 14/100 17/100 17.1/2 25/2.
A short description of data set [2]: HILIC, Waters ACQUITY UPLC BEH Amide, 150 × 2.1 mm, 1.7 µm, 40 °C, 0.5 mL/min, estimated dead time 0.66 min; A: 5% water + 95% acetonitrile; B: 70% water + 30% acetonitrile + 10 mM ammonium formate, pH 6.5; gradient (min/%B) 0/0 2/0 20/70 23/70 24/0 31/0.
The nature of data set [3]: HILIC, Merck SeQuant ZIC-pHILIC, 150 × 2.1 mm, 5 µm, 40 °C, 0.3 mL/min, estimated dead time 1.1 min; A: acetonitrile; B: water + 2.8 mM ammonium formate, pH 9; gradient (min/%B) 0/5 1/5 10/51 13/51 13.1/5 20/5.
Data set [4] in a line: RP, Phenomenex Kinetex C18, 150 × 2.1 mm, 1.7 µm, 30 °C, 0.3 mL/min, estimated dead time 1.1 min; A: water + 0.1% formic acid, pH 3; B: acetonitrile + 0.1% formic acid, pH 3; gradient (min/%B) 0/2 14/100 17/100 17.1/2 25/2. The source holds these as a separate data set.

The structures appear in SMILES notation.

`O=C(O)c1ccc2ccccc2n1` [2-QUINOLINECARBOXYLATE]: the LC retention time is 4.39 min in data set [1], 8.23 min in data set [2] and 5.63 min in data set [3].

Regarding `Nc1ccc(C(=O)[O-])cc1` [4-AMINOBENZOATE], the figures for the LC retention time in data set [1], in data set [2] and in data set [3] were 3.83 min, 1.11 min and 4.05 min, respectively.

`COc1cc(C(O)CO)ccc1O` (centres undefined) [4-HYDROXY-3-METHOXYPHENYLGLYCOL]: the LC retention time in data set [1] was 3.21 min; in data set [2] it was 1.01 min.

As to `O=Cc1ccc(O)cc1` [4-HYDROXYBENZALDEHYDE], the LC retention time in data set [2] is 2.67 min; in data set [3] it was 1.43 min; in data set [4], 5.11 min.

Regarding `Cc1cc2nc[nH]c2cc1C` [5,6 DIMETHYLBENZIMIDAZOLE], the LC retention time in data set [1] is 4.83 min; in data set [2], 0.92 min.

On to `O=C(O)CCCCCCCCCO` [10-HYDROXYDECANOATE], for which the results for the LC retention time in data set [2], in data set [3] and in data set [4] were 1 min, 1.44 min and 7.13 min, respectively.

As to `Nc1ncnc2c1ncn2C1OC(CO)C2OP(=O)(O)OC21` (centres undefined) [ADENOSINE 2',3'-CYCLIC PHOSPHATE], the LC retention time in data set [2] is 6.69 min; in data set [3], 6.94 min; in data set [4], 1.73 min.

On to `Nc1ncnc2c1ncn2C1OC(CO)C(O)C1O` (centres undefined) [ADENOSINE], for which the LC retention time in data set [2] is 3.85 min; in data set [3] it was 5.92 min; in data set [4], 2.34 min.

For `O=C([O-])CCCCC(=O)[O-]` [ADIPATE], the LC retention time is 5.26 min in data set [2], 8.71 min in data set [3] and 3.73 min in data set [4].

In the case of `Cn1c(=O)c2c(ncn2C)n(C)c1=O` [CAFFEINE], the LC retention time in data set [1] was 4.68 min; in data set [2] it was 1.03 min.

In the case of `Nc1ccn(C2OC(CO)C(O)C2O)c(=O)n1` (centres undefined) [CYTIDINE], the LC retention time in data set [2] was 6.3 min; in data set [3], 7.29 min; in data set [4] it was 1.39 min.

In the case of `CC(CCC(=O)O)C1CCC2C3CCC4CC(O)CCC4(C)C3CC(O)C12C` (centres undefined) [DEOXYCHOLATE], the figures for the LC retention time in data set [1] and in data set [2] were 10.8 min and 1.01 min, respectively.

As for `CC(=O)OCC(=O)C1CCC2C3CCC4=CC(=O)CCC4(C)C3CCC12C` (centres undefined) [DEOXYCORTICOSTERONE ACETATE], the LC retention time in data set [1] was 11 min.

As to `CC(C)=CCCC(C)C1CCC2C3CC=C4CC(O)CCC4(C)C3CCC12C` (centres undefined) [DESMOSTEROL], the LC retention time in data set [1] was 15.4 min.

Turning to `CCCCCCCCCC(=O)OCC(COP(=O)([O-])OCC[N+](C)(C)C)OC(=O)CCCCCCCCC` (centres undefined) [DIDECANOYL-GLYCEROPHOSPHOCHOLINE], the LC retention time is 5.15 min in data set [2], 1.65 min in data set [3] and 12.8 min in data set [4].

As for `CC12CCC3c4ccc(O)cc4CCC3C1CCC2O` (stereo not drawn) [ESTRADIOL-17ALPHA], the LC retention time in data set [1] was 9.34 min.

Consider `CCOC(=O)Cc1c[nH]c2ccccc12` [ETHYL 3-INDOLEACETATE], for which the LC retention time in data set [1] is 9.17 min.

As to `Cc1cc2nc3c(=O)[nH]c(=O)nc-3n(CC(O)C(O)C(O)COP(=O)(O)OP(=O)(O)OCC3OC(n4cnc5c(N)ncnc54)C(O)C3O)c2cc1C` (centres undefined) [FAD], the LC retention time in data set [1] is 4.21 min; in data set [3], 8.07 min.

Regarding `CCCCCCCCCCCCCC(=O)OCC(O)CO` (centres undefined) [GLYCEROL-MYRISTATE], the LC retention time in data set [1] was 13.3 min.

For the compound `CC(CCC(=O)NCC(=O)O)C1CCC2C3C(O)CC4CC(O)CCC4(C)C3CC(O)C12C` (centres undefined) [GLYCOCHOLATE], the LC retention time in data set [1] is 8.13 min; in data set [2], 6.3 min; in data set [3], 5.5 min.

In the case of `O=C(O)Cc1cc(O)ccc1O` [HOMOGENTISATE], the LC retention time in data set [2] was 1.27 min; in data set [3], 6.88 min; in data set [4], 3.31 min.

On to `COc1cc(CC(=O)O)ccc1O` [HOMOVANILLATE], for which the LC retention time in data set [2] is 1.59 min; in data set [3], 4.78 min; in data set [4], 4.81 min.

Regarding `O=C(O)C(O)Cc1ccc(O)cc1` (centres undefined) [HYDROXYPHENYLLACTATE], the LC retention time in data set [2] is 1.4 min; in data set [3] it was 6.83 min; in data set [4], 3.97 min.

Turning to `O=C([O-])Cc1c[nH]c2ccccc12` [INDOLE-3-ACETATE], the LC retention time in data set [1] was 6.54 min.

On to `COC(=O)Cc1c[nH]c2ccccc12` [INDOLE-3-METHYL ACETATE], for which the LC retention time in data set [1] was 8.33 min.

`O=CCc1c[nH]c2ccccc12` [INDOLEACETALDEHYDE]: the values for the LC retention time in data set [1] and in data set [2] were 4.83 min and 1.02 min, respectively.

`CC(C)CC(N)C(=O)O` (centres undefined) [LEUCINE]: the LC retention time in data set [2] was 7.96 min; in data set [3] it was 7.02 min; in data set [4], 2.05 min.

For `NC(=O)CCCCC1CCSS1` (centres undefined) [LIPOAMIDE], the LC retention time was 6.87 min in data set [1] and 0.88 min in data set [2].

Turning to `O=C(O)CC(O)C(=O)O` (centres undefined) [MALATE], the LC retention time in data set [1] was 2.8 min; in data set [3], 9.39 min.

As to `CC(C)=CCCC(C)=CCCC(C)=CCCC(C)=CCCC(C)=CCCC(C)=CCCC(C)=CCC1=C(C)C(=O)c2ccccc2C1=O` [MENAQUINONE], the LC retention time in data set [1] is 11.9 min.

For the compound `CSCCC(N)C(=O)O` (centres undefined) [METHIONINE], the LC retention time in data set [2] is 8.53 min; in data set [3], 7.53 min; in data set [4], 1.43 min.

Regarding `CC(CC(=O)O)CC(=O)O` [METHYGLUTARATE], the LC retention time in data set [2] is 1.27 min; in data set [3], 7.27 min; in data set [4], 3.85 min.

`CC(O)(CCO)CC(=O)[O-]` (centres undefined) [MEVALONATE]: the LC retention time in data set [2] was 3.94 min; in data set [3], 6.07 min; in data set [4] it was 1.99 min.

For `CCCCCCCCCCCCCC(=O)O` [MYRISTATE], the LC retention time in data set [1] was 11.6 min.

On to `CC(=O)NC(CC(=O)O)C(=O)O` (centres undefined) [N-ACETYLASPARTATE], for which the LC retention time in data set [2] was 3.48 min; in data set [3] it was 8.84 min; in data set [4], 1.45 min.

For the compound `CC(=O)NCC(=O)O` [N-ACETYLGLYCINE], the values for the LC retention time in data set [2], in data set [3] and in data set [4] were 5.48 min, 7.17 min and 1.41 min, respectively.

With `O=C([O-])c1cccnc1` [NICOTINATE], the LC retention time was 3.5 min in data set [2], 5.76 min in data set [3] and 1.41 min in data set [4].

For `CCCCC(N)C(=O)O` (centres undefined) [NORLEUCINE], the LC retention time in data set [2] is 7.75 min; in data set [3], 7.04 min; in data set [4], 2.19 min.

As to `CCCC(N)C(=O)O` (centres undefined) [NORVALINE], the LC retention time in data set [2] was 8.68 min; in data set [3], 7.52 min; in data set [4], 1.33 min.

As for `NC(CCOC(=O)CCC(=O)O)C(=O)O` (centres undefined) [O-SUCCINYL-HOMOSERINE], the LC retention time in data set [2] is 11.8 min; in data set [3], 8.3 min; in data set [4], 1.45 min.

For the compound `CCCCCCCCCCCCCCCC(=O)O` [PALMITATE], the LC retention time in data set [1] is 11.8 min.

On to `O=CCc1ccccc1` [PHENYLACETALDEHYDE], for which the LC retention time in data set [1] was 9.47 min.

Regarding `Nc1nc2nccnc2c(=O)[nH]1` [PTERIN], the LC retention time is 4.43 min in data set [2], 6.57 min in data set [3] and 2.05 min in data set [4].

For `c1ncc2[nH]cnc2n1` [PURINE], the figures for the LC retention time in data set [2], in data set [3] and in data set [4] were 1.89 min, 3.4 min and 1.92 min, respectively.

As to `Cc1ncc(CO)c(C=O)c1O` [PYRIDOXAL], the LC retention time is 1.81 min in data set [2], 2.6 min in data set [3] and 1.4 min in data set [4].

Turning to `O=C1CCC(C(=O)O)N1` (centres undefined) [PYROGLUTAMATE], the LC retention time in data set [1] was 1.71 min.

Consider `C[Se]CCC(N)C(=O)O` (centres undefined) [SELENOMETHIONINE], for which the LC retention time in data set [1] is 1.76 min; in data set [2], 8.56 min; in data set [3], 6.81 min.

With `O=C(O)CCCCCCC(=O)O` [SUBERATE], the figures for the LC retention time in data set [2], in data set [3] and in data set [4] were 4.7 min, 5.2 min and 5.34 min, respectively.

As for `NC(=O)C1CCCN1C(=O)C(Cc1cnc[nH]1)NC(=O)C1CCC(=O)N1` (centres undefined) [THYROTROPIN RELEASING HORMONE], the LC retention time was 8.34 min in data set [2], 6.53 min in data set [3] and 2.14 min in data set [4].

For `NCCc1c[nH]c2ccccc12` [TRYPTAMINE], the LC retention time is 5.12 min in data set [1] and 7.11 min in data set [2].

`O=c1cc[nH]c(=O)[nH]1` [URACIL]: the LC retention time in data set [2] is 1.83 min; in data set [3], 4.25 min; in data set [4] it was 1.41 min.

As for `O=c1[nH]c(=O)c2[nH]c(=O)[nH]c2[nH]1` [URATE], the LC retention time is 2.25 min in data set [2], 8.13 min in data set [3] and 1.52 min in data set [4].

Consider `NC(=O)NCCC(=O)O` [UREIDOPROPIONATE], for which the values for the LC retention time in data set [2], in data set [3] and in data set [4] were 5.27 min, 7.98 min and 1.4 min, respectively.

For `O=C(O)C=Cc1cnc[nH]1` [UROCANATE], the LC retention time in data set [2] is 4.08 min; in data set [3] it was 7.08 min; in data set [4], 1.43 min.
